Experimental data from patent publication US12582641B2, “Sulfur-containing compound based on glutarimide skeleton and application thereof” (SHANGHAITECH UNIVERSITY, priority 2019, dated 2026).

Tested on: MM.1S cells
Test: Proliferation inhibition (IC50) in MM.1S cells, cell viability assay
Details: Homo sapiens, MM1.S, 72 h, read-out: IC50 (nM), proliferation inhibitory activity of MM.1S cells (half inhibitory concentration)

Compound | IC50 [nM]
O=C1CCC(N2Cc3c(SCCCCCCC(=O)N4CCCCC4)cccc3C2=O)C(=O)N1 (stereo not shown) [SIAIS1220115, 3-(1-oxo-4-((7-oxo-7-(piperidin-1-yl)heptyl)thio)isoindolin-2-yl)piperidine-2,6-dione] | 0.05
O=C1CCC(N2Cc3c(SCCCCCCCCS)cccc3C2=O)C(=O)N1 (stereo not shown) [SIAIS1220143, 3-(4-((8-mercaptooctyl)thio)-1-oxoisoindolin-2-yl)piperidine-2,6-dione] | 2.73
O=C1CCC(N2Cc3c(SCCCCCCCNC4C5CC6CC(C5)CC4C6)cccc3C2=O)C(=O)N1 (stereo not shown) [SIAIS1220159, 3-(4-((7-((adamantan-2-yl)amino)heptyl)thio)-1-oxoisoindolin-2-yl)piperidine-2,6-dione] | 0.01
O=C1CCC(N2Cc3c(SCCCCCCCN4CCCCCC4)cccc3C2=O)C(=O)N1 (stereo not shown) [SIAIS1220163, 3-(4-((7-(azepan-1-yl)heptyl)thio)-1-oxoisoindolin-2-yl)piperidine-2,6-dione] | 0.03
O=C1CCC(N2Cc3c(SCc4ccc(CN5CCOCC5)cc4)cccc3C2=O)C(=O)N1 (stereo not shown) [SIAIS1220167, 3-(4-((4-(morpholinomethyl)benzyl)thio)-1-oxoisoindolin-2-yl)piperidine-2,6-dione] | 0.25 ± 0.01
O=C1CCC(N2Cc3c(SCCCCCCNC4C5CC6CC(C5)CC4C6)cccc3C2=O)C(=O)N1 (stereo not shown) [SIAIS1220179, 3-(4-((6-((adamantan-2-yl)amino)hexyl)thio)-1-oxoisoindolin-2-yl)piperidine-2,6-dione] | 0.036 ± 0.01
O=C1CCC(N2Cc3c(SCCCCCCNC4CCCCC4)cccc3C2=O)C(=O)N1 (stereo not shown) [SIAIS1220183, 3-(4-((6-(cyclohexylamino)hexyl)thio)-1-oxoisoindolin-2-yl)piperidine-2,6-dione] | 0.197
O=C1CCC(N2Cc3c(SCCCCCCCNC4CCCCC4)cccc3C2=O)C(=O)N1 (stereo not shown) [SIAIS1220185, 3-(4-((7-(cyclohexylamino)heptyl)thio)-1-oxoisoindolin-2-yl)piperidine-2,6-dione] | 0.026 ± 0.007
O=C1CCC(N2Cc3c(SCCCCCCC(=O)NC4C5CC6CC(C5)CC4C6)cccc3C2=O)C(=O)N1 (stereo not shown) [SIAIS1220199, N-(adamantan-2-yl)-7-((2-(2,6-dioxopiperidin-3-yl)-1-oxoisoindolin-4-yl)thio)heptanamide] | 0.026 ± 0.001
O=C1CCC(N2Cc3c(SCc4ccc(CNC5C6CC7CC(C6)CC5C7)cc4)cccc3C2=O)C(=O)N1 (stereo not shown) [SIAIS1221005, 3-(4-((4-((adamantan-2-ylamino)methyl)benzyl)thio)-1-oxoisoindolin-2-yl)piperidine-2,6-dione] | 0.035 ± 0.007
O=C1CCC(N2Cc3c(SCCCCCCNCC45CC6CC(CC(C6)C4)C5)cccc3C2=O)C(=O)N1 (stereo not shown) [SIAIS1221013, 3-(4-((6-((adamantan-1-ylmethyl)amino)hexyl)thio)-1-oxoisoindolin-2-yl)piperidine-2,6-dione] | 0.028 ± 0.012
O=C1CCC(N2Cc3c(SCCCCCCCN4CCC5(CCCCC5)CC4)cccc3C2=O)C(=O)N1 (stereo not shown) [SIAIS1221015, 3-(4-((7-(3-azaspiro[5.5]undecan-3-yl)heptyl)thio)-1-oxoisoindolin-2-yl)piperidine-2,6-dione] | 0.04 ± 0.01
CC1CC(C)CN(CCCCCCCSc2cccc3c2CN(C2CCC(=O)NC2=O)C3=O)C1 (stereo not shown) [SIAIS1221021, 3-(4-((7-(3,5-dimethylpiperidin-1-yl)heptyl)thio)-1-oxoisoindolin-2-yl)piperidine-2,6-dione] | 0.047 ± 0.001
O=C1CCC(N2C(=O)c3cccc(SCCCCCCCN4CCCCC4)c3C2=O)C(=O)N1 (stereo not shown) [SIAIS1221033, 2-(2,6-dioxopiperidin-3-yl)-4-((7-(piperidin-1-yl)heptyl)thio)isoindoline-1,3-dione] | 1.62
O=C1CCC(N2C(=O)c3ccc(SCCCCCCCNC45CC6CC(CC(C6)C4)C5)cc3C2=O)C(=O)N1 (stereo not shown) [SIAIS1221075, 5-((7-((adamantan-1-yl)amino)heptyl)thio)-2-(2,6-dioxopiperidin-3-yl)isoindoline-1,3-dione] | 15.8

Continued by falling IC50, values first:

IC50 [nM] | Compound
43 | O=C(CCCCN1CCCCC1)NCCSc1cccc2c1CN(C1CCC(=O)NC1=O)C2=O (stereo not shown) [SIAIS1220169, N-(2-((2-(2,6-dioxopiperidin-3-yl)-1-oxoisoindolin-4-yl)thio)ethyl)-5-(piperidin-1-yl)pentanamide]
9.71 | O=C1CCC(N2Cc3c(SCCCCCCCCCSCCCC(F)(F)C(F)(F)F)cccc3C2=O)C(=O)N1 (stereo not shown) [SIAIS1220131, 3-(1-oxo-4-((9-((4,4,5,5,5-pentafluoropentyl)thio)nonyl)thio)isoindolin-2-yl)piperidine-2,6-dione]
4.73 | O=C1CCC(N2Cc3c(SCCCC(F)(F)C(F)(F)F)cccc3C2=O)C(=O)N1 (stereo not shown) [SIAIS1220133, 3-(1-oxo-4-((4,4,5,5,5-pentafluoropentyl)thio)isoindolin-2-yl)piperidine-2,6-dione]
4.73 | O=C1CCC(N2Cc3c(SCCCCCCCCC[S+]([O-])CCCC(F)(F)C(F)(F)F)cccc3C2=O)C(=O)N1 (stereo not shown) [SIAIS1220145, 3-(1-oxo-4-((9-((4,4,5,5,5-pentafluoropentyl)sulfinyl)nonyl)thio)isoindolin-2-yl)piperidine-2,6-dione]
1.59 | O=C1CCC(N2Cc3c(SCCCCCCCCCS(=O)(=O)CCCC(F)(F)C(F)(F)F)cccc3C2=O)C(=O)N1 (stereo not shown) [SIAIS1220147, 3-(1-oxo-4-((9-((4,4,5,5,5-pentafluoropentyl)sulfonyl)nonyl)thio)isoindolin-2-yl)piperidine-2,6-dione]
0.598 | O=C1CCC(N2Cc3c(SCCCCCCCNc4ccccc4)cccc3C2=O)C(=O)N1 (stereo not shown) [SIAIS1220187, 3-(1-oxo-4-((7-(phenylamino)heptyl)thio)isoindolin-2-yl)piperidine-2,6-dione]
0.578 | CC12CC3CC(C)(C1)CC(NC(=O)CCCCCCSc1cccc4c1CN(C1CCC(=O)NC1=O)C4=O)(C3)C2 (stereo not shown) [SIAIS1220197, N-(3,5-dimethyladamantan-1-yl)-7-((2-(2,6-dioxopiperidin-3-yl)-1-oxoisoindolin-4-yl)thio)heptanamide]
0.553 | CN(CCCCCCCSc1cccc2c1CN(C1CCC(=O)NC1=O)C2=O)c1ccccc1 (stereo not shown) [SIAIS1220189, 3-(4-((7-(methyl(phenyl)amino)heptyl)thio)-1-oxoisoindolin-2-yl)piperidine-2,6-dione]
0.12 | O=C1CCC(N2Cc3c(SCCCCCCCN4CCCC4)cccc3C2=O)C(=O)N1 (stereo not shown) [SIAIS1220161, 3-(1-oxo-4-((7-(pyrrolidin-1-yl)heptyl)thio)isoindolin-2-yl)piperidine-2,6-dione]
0.072 ± 0.004 | O=C1CCC(N2Cc3c(SCc4ccc(CNC5CCCCC5)cc4)cccc3C2=O)C(=O)N1 (stereo not shown) [SIAIS1221071, 3-(4-((4-((cyclohexylamino)methyl)benzyl)thio)-1-oxoisoindolin-2-yl)piperidine-2,6-dione]
0.07 | CC(C)N(C(=O)CCCCCCSc1cccc2c1CN(C1CCC(=O)NC1=O)C2=O)C(C)C (stereo not shown) [SIAIS1220117, 7-((2-(2,6-dioxopiperidin-3-yl)-1-oxoisoindolin-4-yl)thio)-N,N-diisopropylheptanamide]
0.061 | O=C1CCC(N2Cc3c(SCCCCCCCSC45CC6CC(CC(C6)C4)C5)cccc3C2=O)C(=O)N1 (stereo not shown) [SIAIS1221025, 3-(4-((7-(adamantan-1-ylthio)heptyl)thio)-1-oxoisoindolin-2-yl)piperidine-2,6-dione]
0.048 | O=C1CCC(N2Cc3c(SCCCCCCC(=O)NC45CC6CC(CC(C6)C4)C5)cccc3C2=O)C(=O)N1 (stereo not shown) [SIAIS1220195, N-(adamantan-1-yl)-7-((2-(2,6-dioxopiperidin-3-yl)-1-oxoisoindolin-4-yl)thio)heptanamide]
0.044 ± 0.003 | O=C1CCC(N2Cc3c(SCCCCCCCNCC45CC6CC(CC(C6)C4)C5)cccc3C2=O)C(=O)N1 (stereo not shown) [SIAIS1220171, 3-(4-((7-(((adamantan-1-yl)methyl)amino)heptyl)thio)-1-oxoisoindolin-2-yl)piperidine-2,6-dione]
0.041 ± 0.018 | O=C1CCC(N2Cc3c(SCCCCCCNC45CC6CC(CC(C6)C4)C5)cccc3C2=O)C(=O)N1 (stereo not shown) [SIAIS1220177, 3-(4-((6-((adamantan-1-yl)amino)hexyl)thio)-1-oxoisoindolin-2-yl)piperidine-2,6-dione]
0.038 ± 0.006 | CC1(C)CCN(CCCCCCCSc2cccc3c2CN(C2CCC(=O)NC2=O)C3=O)CC1 (stereo not shown) [SIAIS1221027, 3-(4-((7-(4,4-dimethylpiperidin-1-yl)heptyl)thio)-1-oxoisoindolin-2-yl)piperidine-2,6-dione]
0.03 ± 0.01 | O=C1CCC(N2Cc3c(SCCCCCCCN4CCCCCCC4)cccc3C2=O)C(=O)N1 (stereo not shown) [SIAIS1220193, 3-(4-((7-(azocan-1-yl)heptyl)thio)-1-oxoisoindolin-2-yl)piperidine-2,6-dione]
0.025 | CC1(C)CCC(NCCCCCCCSc2cccc3c2CN(C2CCC(=O)NC2=O)C3=O)CC1 (stereo not shown) [SIAIS1221029, 3-(4-((7-((4,4-dimethylcyclohexyl)amino)heptyl)thio)-1-oxoisoindolin-2-yl)piperidine-2,6-dione]
0.024 ± 0.01 | O=C1CCC(N2Cc3c(SCc4ccc(CNC56CC7CC(CC(C7)C5)C6)cc4)cccc3C2=O)C(=O)N1 (stereo not shown) [SIAIS1221003, 3-(4-((4-(((adamantan-1-yl)amino)methyl)benzyl)thio)-1-oxoisoindolin-2-yl)piperidine-2,6-dione]
0.02 | CC12CC3CC(C)(C1)CC(NCCCCCCCSc1cccc4c1CN(C1CCC(=O)NC1=O)C4=O)(C3)C2 (stereo not shown) [SIAIS1220157, 3-(4-((7-((3,5-dimethyladamantan-1-yl)amino)heptyl)thio)-1-oxoisoindolin-2-yl)piperidine-2,6-dione]
0.02 | O=C1CCC(N2C(=O)c3cccc(SCCCCCCCNC45CC6CC(CC(C6)C4)C5)c3C2=O)C(=O)N1 (stereo not shown) [SIAIS1221069, 4-((7-((adamantan-1-yl)amino)heptyl)thio)-2-(2,6-dioxopiperidin-3-yl)isoindoline-1,3-dione]
0.007 | CC1(C)[C@@H]2CC[C@@]1(C)[C@@H](NCCCCCCCSc1cccc3c1CN(C1CCC(=O)NC1=O)C3=O)C2 (stereo partly drawn) [SIAIS1221019, 3-(1-oxo-4-((7-(((1R,2S,4R)-1,7,7-trimethylbicyclo[2.2.1]heptan-2-yl)amino)heptyl)thio)isoindolin-2-yl)piperidine-2,6-dione]
